According to patent publication US6124323A, “4-substituted piperidine analogs and their use as subtype selective NMDA receptor antagonists” (Warner-Lambert Company, priority 1998, dated 2000):
Where a name gives a salt, the structure may show the parent alone.

Tests used:
Format in all cases: cell-based
[1] = molecular target: T1, NMDA receptor subunits 1A/2A (Rattus norvegicus, UniProt P35439+Q00959); assay: Electrophysiological assay at NMDA receptor subunits expressed in Xenopus oocytes, 1A/2A; settings: glutamate 100 μm and glycine 1-100 μm
T1 construct: expressed in transfected cells; host or cells: Xenopus laevis oocytes (cRNA injection; clones from Dr. P. H. Seeburg)
Experimental: (§1) Many of the properties of native NMDA receptors are seen in recombinant homomeric NR1 receptors. These properties are altered by the NR2 subunits. Recombinant NMDA receptors expressed in Xenopus oocytes have been studied by voltage-clamp recording, as has developmental and regional expression of the mRNAs encoding NMDA receptor subunits. Electrophysiological assays were utilized to characterize the actions of compounds at NMDA receptors expressed in Xenopus oocytes. The compounds were assayed at four subunit combinations of cloned rat NMDA receptors, corresponding to three putative NMDA receptor subtypes [Moriyoshi, et al. Nature 1991, 354, 31-37; Monyer et al, Science 1992, 256, 1217-1221; Kutsuwada et al, Nature 1992, 358, 36-41; Sugihara et al, Biochem. Biophys Res. Commun. 1992, 185, 826-832].
(§2) Electrophysiological Assays at NMDA Receptor Subunits
(§3) Preparation of RNA. cDNA clones encoding the NR1A, NR2A, NR2B, NR2C and NR2D rat NMDA receptor subtypes were provided by Dr. P. H. Seeburg (see, Moriyoshi et al., Nature (Lond.) 354:31-37 (1991); Kutsuwada et al., Nature (Lond.) 358:36-41 (1992) Monyer et al., Science (Washington, D.C.) 256:1217-1221 (1992); Ikeda et al., FEBS Lett. 313:34-38 (1992); Ishii et al., J. Biol. Chem. 268:2836-2843 (1993) for details of these clones or their mouse homologs). The clones were transformed into appropriate host bacteria and plasmid preparations were made with conventional DNA purification techniques. A sample of each clone was linearized by restriction enzyme digestion and cRNA was synthesized with T3 RNA polymerase. The cRNA was diluted to 400 ng/μl and stored in 1 μl aliquots at -80° C. until injection.
(§4) The Xenopus oocyte expression system. Mature female Xenopus laevis were anaesthetized (20-40 min) using 0.15% 3-aminobenzoic acid ethyl ester (MS-222) and 2-4 ovarian lobes were surgically removed. Oocytes at developmental stages IV-VI (Dumont, J. N., J. Morphol. 136:153-180 (1972)), were dissected from the ovary still surrounded by enveloping ovarian tissues. Follicle-enclosed oocytes were micro-injected with 1:1 mixtures of cRNA:NR1A+NR2A, 2B, 2C or 2D; injecting ~2,5, or 20 ng of RNA encoding each receptor subunit. NR1A encoding cRNA was injected alone at ~20 ng. Oocytes were stored in Barth's medium containing (in mM):NaCl, 88; KCl, 1; CaCl2, 0.41; Ca(NO3)2, 0.33; MgSO4, 0.82 NaHCO3, 2.4; HEPES 5, pH 7.4, with 0.1 mg/ml gentamicin sulphate. While oocytes were still surrounded by enveloping ovarian tissues the Barth's medium was supplemented with 0.1% bovine serum. Oocytes were defolliculated 1-2 days following injections by treatment with collagenase (0.5 mg/ml Sigma Type I for 0.5-1 hr) (Miledi and Woodward, J. Physiol. (Lond.) 416:601-621 (1989)) and subsequently stored in serum-free medium.
(§5) Electrical recordings were made using a conventional two-electrode voltage clamp (Dagan TEV-200) over periods ranging between 3-21 days following injection. (Woodward et al., Mol. Pharmacol. 41: 89-103 (1992)). Oocytes were placed in a 0.1 ml recording chamber continuously perfused (5-15 ml min^-1 ) with frog Ringer's solution containing (in mM):NaCl, 115; KCl, 2; CaCl2, 1.8; HEPES, 5; pH 7.4. Drugs were applied by bath perfusion. Using oocytes expressing different subunit combinations of NMDA receptor, NMDA currents were activated by co-application of glutamate (100 μm) and glycine (1-100 μm). Inhibitory potency of the novel antagonists was assessed on responses elicited by fixed concentrations of glutamate and glycine, by measuring reductions in current induced by progressively increasing concentrations of antagonist. Concentration-inhibition curves were fit with equation 1.
(§6) I/Icontrol =1/(1+([antagonist]/10^-pIC50)^n) Eq. 1
(§7) in which Icontrol is the current evoked by agonists alone, pIC50 =-log IC50, IC50 is the concentration of antagonist that produces half maximal inhibition, and n is the slope factor. (De Lean et al., Am. J. Physiol. 235:E97-102 (1978)). […]

[2] = molecular target: T2, NMDA receptor subunits 1A/2B (Rattus norvegicus, UniProt P35439+Q00960); assay: Electrophysiological assay at NMDA receptor subunits expressed in Xenopus oocytes, 1A/2B; settings: Xenopus oocytes; glutamate 100 μm and glycine 1-100 μm; read-out: Subunits IC50, 1A/2B
T2 construct: expressed in transfected cells; host or cells: Xenopus laevis oocytes (cRNA injection; clones from Dr. P. H. Seeburg)
Experimental: as §1, §2, §3, §4, §5, §6, §7

[3] = molecular target: T3, NMDA receptor subunits 1A/2C (Rattus norvegicus, UniProt P35439+Q00961); assay: Electrophysiological assay at NMDA receptor subunits expressed in Xenopus oocytes, 1A/2C; settings: Xenopus oocytes; glutamate 100 μm and glycine 1-100 μm; read-out: Subunits IC50, 1A/2C
T3 construct: expressed in transfected cells; host or cells: Xenopus laevis oocytes (cRNA injection; clones from Dr. P. H. Seeburg)
Experimental: as §1, §2, §3, §4, §5, §6, §7

T3 sequence (Q00961 20-1237, other chains not shown): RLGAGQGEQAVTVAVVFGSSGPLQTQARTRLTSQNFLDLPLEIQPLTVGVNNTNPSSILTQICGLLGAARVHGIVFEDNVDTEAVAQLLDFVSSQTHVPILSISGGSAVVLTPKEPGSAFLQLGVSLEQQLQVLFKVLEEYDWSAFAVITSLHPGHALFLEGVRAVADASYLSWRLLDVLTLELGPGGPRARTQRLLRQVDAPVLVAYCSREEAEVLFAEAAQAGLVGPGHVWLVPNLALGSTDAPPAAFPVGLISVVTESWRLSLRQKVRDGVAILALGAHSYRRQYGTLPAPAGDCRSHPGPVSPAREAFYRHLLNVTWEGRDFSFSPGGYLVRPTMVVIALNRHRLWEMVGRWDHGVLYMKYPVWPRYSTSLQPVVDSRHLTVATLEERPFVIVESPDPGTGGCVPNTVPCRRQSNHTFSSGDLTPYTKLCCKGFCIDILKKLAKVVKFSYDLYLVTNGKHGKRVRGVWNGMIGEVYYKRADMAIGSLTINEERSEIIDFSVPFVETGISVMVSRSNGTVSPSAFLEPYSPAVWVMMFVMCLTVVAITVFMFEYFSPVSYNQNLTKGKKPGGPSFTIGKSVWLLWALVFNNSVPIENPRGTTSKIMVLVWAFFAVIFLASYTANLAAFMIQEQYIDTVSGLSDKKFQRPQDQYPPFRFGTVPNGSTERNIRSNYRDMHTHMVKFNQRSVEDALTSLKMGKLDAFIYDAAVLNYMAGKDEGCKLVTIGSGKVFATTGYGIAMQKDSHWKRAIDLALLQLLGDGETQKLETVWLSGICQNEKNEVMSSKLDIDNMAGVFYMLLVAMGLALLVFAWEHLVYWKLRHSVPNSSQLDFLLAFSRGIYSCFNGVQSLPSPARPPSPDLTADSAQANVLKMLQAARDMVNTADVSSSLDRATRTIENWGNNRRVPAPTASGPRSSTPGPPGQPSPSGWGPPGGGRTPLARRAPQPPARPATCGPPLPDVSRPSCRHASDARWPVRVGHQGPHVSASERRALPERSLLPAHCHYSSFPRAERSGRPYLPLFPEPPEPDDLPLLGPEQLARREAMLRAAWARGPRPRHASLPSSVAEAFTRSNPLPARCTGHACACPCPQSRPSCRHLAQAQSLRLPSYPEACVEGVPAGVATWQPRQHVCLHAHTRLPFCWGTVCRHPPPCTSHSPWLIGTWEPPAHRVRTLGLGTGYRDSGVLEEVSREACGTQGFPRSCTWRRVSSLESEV
T2 sequence (Q00960 27-1482, other chains not shown): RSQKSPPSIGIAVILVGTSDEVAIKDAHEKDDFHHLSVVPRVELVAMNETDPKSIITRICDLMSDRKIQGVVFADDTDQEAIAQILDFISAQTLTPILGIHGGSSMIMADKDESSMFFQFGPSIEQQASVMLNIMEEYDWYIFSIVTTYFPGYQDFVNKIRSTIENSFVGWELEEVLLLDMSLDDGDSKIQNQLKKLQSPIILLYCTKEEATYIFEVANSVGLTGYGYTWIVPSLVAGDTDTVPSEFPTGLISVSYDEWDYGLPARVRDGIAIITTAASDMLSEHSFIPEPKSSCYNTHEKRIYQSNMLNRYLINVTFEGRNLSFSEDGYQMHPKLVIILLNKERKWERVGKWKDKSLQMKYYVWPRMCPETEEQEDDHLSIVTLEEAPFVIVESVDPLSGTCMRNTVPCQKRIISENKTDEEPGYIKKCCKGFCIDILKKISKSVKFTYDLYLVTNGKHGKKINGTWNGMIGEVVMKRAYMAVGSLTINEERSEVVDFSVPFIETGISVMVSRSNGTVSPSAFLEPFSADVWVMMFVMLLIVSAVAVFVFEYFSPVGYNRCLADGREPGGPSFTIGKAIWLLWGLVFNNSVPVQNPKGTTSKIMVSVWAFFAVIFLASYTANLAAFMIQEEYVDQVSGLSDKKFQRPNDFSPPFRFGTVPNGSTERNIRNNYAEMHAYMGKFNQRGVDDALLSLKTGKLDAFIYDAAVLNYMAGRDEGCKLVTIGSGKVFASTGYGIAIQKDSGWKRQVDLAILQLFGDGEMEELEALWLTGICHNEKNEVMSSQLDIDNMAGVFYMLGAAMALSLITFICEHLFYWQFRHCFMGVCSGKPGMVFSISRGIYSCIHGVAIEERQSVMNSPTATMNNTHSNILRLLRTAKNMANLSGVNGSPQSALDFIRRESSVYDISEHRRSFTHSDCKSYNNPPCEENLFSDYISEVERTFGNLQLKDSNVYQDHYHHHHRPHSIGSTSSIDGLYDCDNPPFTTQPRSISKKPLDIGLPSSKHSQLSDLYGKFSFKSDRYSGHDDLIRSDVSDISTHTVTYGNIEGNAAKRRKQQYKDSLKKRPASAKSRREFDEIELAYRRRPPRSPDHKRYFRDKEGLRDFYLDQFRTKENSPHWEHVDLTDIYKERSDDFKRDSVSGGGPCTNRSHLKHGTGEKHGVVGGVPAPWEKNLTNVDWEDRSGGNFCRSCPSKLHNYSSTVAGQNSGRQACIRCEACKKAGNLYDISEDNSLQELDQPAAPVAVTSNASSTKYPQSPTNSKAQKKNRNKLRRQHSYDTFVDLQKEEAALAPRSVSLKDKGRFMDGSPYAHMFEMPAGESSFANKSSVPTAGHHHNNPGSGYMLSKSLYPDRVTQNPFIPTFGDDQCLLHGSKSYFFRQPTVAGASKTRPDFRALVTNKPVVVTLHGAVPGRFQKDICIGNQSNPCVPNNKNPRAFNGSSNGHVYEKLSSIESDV
T1 sequence (Q00959 20-1464 limits assumed, other chains not shown): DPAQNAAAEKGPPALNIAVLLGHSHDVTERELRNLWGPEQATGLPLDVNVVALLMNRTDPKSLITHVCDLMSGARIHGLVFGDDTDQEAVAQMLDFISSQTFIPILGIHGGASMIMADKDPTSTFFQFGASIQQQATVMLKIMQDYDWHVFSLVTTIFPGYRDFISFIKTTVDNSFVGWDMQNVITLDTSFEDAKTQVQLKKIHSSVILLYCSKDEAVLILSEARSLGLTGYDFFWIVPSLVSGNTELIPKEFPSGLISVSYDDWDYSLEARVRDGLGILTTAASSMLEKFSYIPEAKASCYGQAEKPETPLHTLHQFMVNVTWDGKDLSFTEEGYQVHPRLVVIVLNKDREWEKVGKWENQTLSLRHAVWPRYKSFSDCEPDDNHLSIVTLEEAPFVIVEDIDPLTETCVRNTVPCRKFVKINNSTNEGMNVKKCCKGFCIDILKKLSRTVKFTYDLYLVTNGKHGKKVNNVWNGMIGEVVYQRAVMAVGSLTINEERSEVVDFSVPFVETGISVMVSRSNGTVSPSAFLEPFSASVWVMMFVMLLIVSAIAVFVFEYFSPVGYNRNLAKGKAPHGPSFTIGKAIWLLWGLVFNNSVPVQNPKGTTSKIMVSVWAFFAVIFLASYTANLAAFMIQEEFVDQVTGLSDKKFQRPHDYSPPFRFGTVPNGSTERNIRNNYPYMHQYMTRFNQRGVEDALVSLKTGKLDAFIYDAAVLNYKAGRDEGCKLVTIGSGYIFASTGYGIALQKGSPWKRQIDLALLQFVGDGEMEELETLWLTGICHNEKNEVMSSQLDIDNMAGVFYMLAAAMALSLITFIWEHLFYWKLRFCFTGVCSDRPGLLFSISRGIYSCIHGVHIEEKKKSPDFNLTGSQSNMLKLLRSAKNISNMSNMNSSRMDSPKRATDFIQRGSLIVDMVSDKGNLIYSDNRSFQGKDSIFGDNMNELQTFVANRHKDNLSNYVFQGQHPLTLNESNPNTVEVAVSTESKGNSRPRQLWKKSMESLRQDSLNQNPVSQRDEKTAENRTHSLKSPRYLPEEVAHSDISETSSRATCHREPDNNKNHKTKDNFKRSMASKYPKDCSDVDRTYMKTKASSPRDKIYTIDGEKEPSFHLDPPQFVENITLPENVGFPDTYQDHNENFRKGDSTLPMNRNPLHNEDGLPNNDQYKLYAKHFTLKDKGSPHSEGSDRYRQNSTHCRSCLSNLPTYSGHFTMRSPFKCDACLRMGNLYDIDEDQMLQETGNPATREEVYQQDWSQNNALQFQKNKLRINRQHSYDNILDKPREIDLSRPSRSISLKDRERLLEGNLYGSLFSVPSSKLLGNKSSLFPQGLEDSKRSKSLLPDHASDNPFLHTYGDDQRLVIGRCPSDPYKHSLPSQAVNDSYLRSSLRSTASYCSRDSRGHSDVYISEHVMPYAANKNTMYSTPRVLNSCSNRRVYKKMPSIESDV

Compound: CC(CCOc1ccccc1)N1CCC(Cc2ccccc2)CC1 (stereo not drawn) [Ex. 41, 4-Benzyl-1-(1-methyl-3-phenoxypropyl)piperidine hydrochloride]
- IC50 [1]: 90 µM
- IC50 [2]: 5 µM
- IC50 [3]: > 100 µM

Compound: c1ccc(CC2CCN(CCOc3ccc4ncccc4c3)CC2)cc1 [Ex. 50]
- IC50 [1]: 75 µM
- IC50 [2]: 5 µM
- IC50 [3]: > 100 µM

Compound: c1ccc(CC2CCN(CCOc3cccc4cccnc34)CC2)cc1 [Ex. 51, 4-Benzyl-1-[2-(8-quinolinoxy)ethyl]piperidine]
- IC50 [1]: 80 µM
- IC50 [2]: 5 µM
- IC50 [3]: > 100 µM

Compound: Nc1c(OCCN2CCC(Cc3ccccc3)CC2)cccc1[N+](=O)[O-] [Ex. 52, 4-Benzyl-1-[2-(2-amino-3-nitrophenoxy)ethyl]piperidine]
- IC50 [1]: 60 µM
- IC50 [2]: 9.5 µM
- IC50 [3]: > 100 µM

Compound: O=c1[nH]c2cccc(OCCN3CCC(Cc4ccccc4)CC3)c2[nH]c1=O [Ex. 54, 4-Benzyl-1-[2-(2,3-dioxoquinoxalin-5-oxy)ethyl]piperidine]
- IC50 [1]: 60 µM
- IC50 [2]: 3.6 µM
- IC50 [3]: > 100 µM

Compound: Nc1ccc(OCCN2CCC(Cc3ccccc3)CC2)cc1[N+](=O)[O-] [Ex. 56, 4-Benzyl-1-[2-(4-amino-3-nitrophenoxy)ethyl]piperidine]
- IC50 [1]: 90 µM
- IC50 [2]: 1.1 µM
- IC50 [3]: > 100 µM

Compound: O=[N+]([O-])c1cccc(OCCN2CCC(Cc3ccccc3)CC2)c1 [Ex. 62, 4-Benzyl-1-[2-(3-nitrophenoxy)ethyl]piperidine]
- IC50 [1]: 80 µM
- IC50 [2]: 6 µM
- IC50 [3]: > 100 µM

Compound: COc1cccc(OCCN2CCC(Cc3ccccc3)CC2)c1 [Ex. 69, 4-Benzyl-1-[2-(3-methoxyphenoxy)ethyl]piperidine]
- IC50 [1]: 20 µM
- IC50 [2]: 0.43 µM
- IC50 [3]: > 100 µM

Compound: O=c1[nH]c2ccc(OCCN3CCC(Cc4ccc(Cl)cc4)CC3)cc2[nH]1 [Ex. 80, 4-(4-Chlorobenzyl)-1-[2-(2-oxobenzimidazol-5-oxy)ethyl]piperidine]
- IC50 [1]: 16 µM
- IC50 [2]: 0.025 µM
- IC50 [3]: 70 µM

Compound: c1ccc(COc2ccc(OCCN3CCC(Cc4ccccc4)CC3)cc2)cc1 [Ex. 98, 1-[2-(4-Benzyloxyphenoxy)ethyl]-4-benzylpiperidine hydrochloride]
- IC50 [1]: 80 µM
- IC50 [2]: 100 µM
- IC50 [3]: 80 µM

Compound: Oc1ccc(CCCN2CCC(Cc3ccccc3)CC2)cc1 [Ex. 106, 1-[3-(4-Hydroxyphenyl)propyl]-4-benzylpiperidine hydrochloride]
- IC50 [1]: 90 µM
- IC50 [2]: 0.02 µM
- IC50 [3]: 260 µM

Compound: Oc1ccc(CCCN2CCC(Cc3ccc(Cl)cc3)CC2)cc1 [Ex. 107, 1-[3-(4-Hydroxyphenyl)propyl]-4-(4-chlorobenzyl)piperidine hydrochloride]
- IC50 [1]: 60 µM
- IC50 [2]: 0.03 µM
- IC50 [3]: 270 µM

Compound: Oc1ccc(CCN2CCC(Cc3ccccc3)CC2)cc1 [Ex. 108, 1-[2-(4-Hydroxyphenyl)ethyl]-4-benzylpiperidine hydrochloride]
- IC50 [1]: 62 µM
- IC50 [2]: 0.25 µM
- IC50 [3]: > 300 µM

Compound: Fc1ccc(OCCN2CCC(Cc3cccc(F)c3)CC2)cc1 [Ex. 113, 4-(3-Fluorobenzyl)-1-(2-(4-fluorophenoxy)ethyl)piperidine hydrochloride]
- IC50 [1]: 200 µM
- IC50 [2]: 30 µM
- IC50 [3]: 200 µM

Compound: Oc1ccc(OCCN2CCC(c3ccccc3)CC2)cc1 [Ex. 127, 1-[2-(4-Hydroxyphenoxy)ethyl]-4-phenylpiperidine hydrochloride]
- IC50 [1]: 70 µM
- IC50 [2]: 5 µM
- IC50 [3]: > 300 µM

Compound: c1ccc(CC2CCN(CCSc3ccccc3)CC2)cc1 [Ex. 144, 4-Benzyl-1-(2-thiophenoxyethyl)piperidine hydrochloride]
- IC50 [1]: > 300 µM
- IC50 [2]: 1.6 µM
- IC50 [3]: > 300 µM

Compound: c1ccc(CC2CCN(CCOc3ccc4c(c3)OCO4)CC2)cc1 [Ex. 148, 1-[2-(3,4-Methylenedioxyphenoxy)ethyl]-4-benzylpiperidine hydrochloride]
- IC50 [1]: 105 µM
- IC50 [2]: 3.8 µM
- IC50 [3]: 135 µM

Compound: Cc1cc(OCCN2CCC(Cc3ccc(F)cc3)CC2)ccc1O [Ex. 152, 1-[2-(4-Hydroxy-3-methylphenoxy)ethyl]-4-(4-fluorobenzyl)piperidine hydrochloride]
- IC50 [1]: 90 µM
- IC50 [2]: 0.04 µM
- IC50 [3]: 200 µM

Compound: Cc1ccc(CC2CCN(CCOc3ccc(O)c(C)c3)CC2)cc1 [Ex. 153, 1-[2-(4-Hydroxy-3-methylphenoxy)ethyl]-4-(4-methylbenzyl)piperidine hydrochloride]
- IC50 [1]: 65 µM
- IC50 [2]: 0.04 µM
- IC50 [3]: 70 µM

Compound: Cc1ccc(CC2(O)CCN(CCOc3ccc(O)c(C)c3)CC2)cc1 [Ex. 155, 1-[2-(4-hydroxy-3-methylphenoxy)ethyl]-4-hydroxy-4-(4-methylbenzyl)piperidine hydrochloride]
- IC50 [1]: 170 µM
- IC50 [2]: 0.03 µM
- IC50 [3]: > 300 µM

Compound: Oc1cccc(OCCN2CCC(Cc3ccc(F)cc3)CC2)c1 [Ex. 159, 4-(4-Fluorobenzyl)-1-[2-(3-Hydroxyphenoxy)ethyl]piperidine hydrochloride]
- IC50 [1]: 130 µM
- IC50 [2]: 0.5 µM
- IC50 [3]: 140 µM

Compound: Cc1ccc(CC2CCN(CCOc3cccc(O)c3)CC2)cc1 [Ex. 160, 1-[2-(3-Hydroxyphenoxy)ethyl]-4-(4-methylbenzyl)piperidine hydrochloride]
- IC50 [1]: 60 µM
- IC50 [2]: 0.2 µM
- IC50 [3]: 120 µM

Compound: Cc1ccc(CC2CCN(CCOc3ccccc3O)CC2)cc1 [Ex. 161, 1-[2-(2-Hydroxyphenoxy)ethyl]-4-(4-methylbenzyl)piperidine hydrochloride]
- IC50 [1]: 85 µM
- IC50 [2]: 0.04 µM
- IC50 [3]: 170 µM

Compound: CN(CCN1CCC(Cc2ccccc2)CC1)c1ccc(O)cc1 [Ex. 163, 4-Benzyl-1-(2-(N-methyl-4-hydroxyanilino)ethyl)piperidine dihydrochloride]
- IC50 [1]: 35 µM
- IC50 [2]: 0.1 µM
- IC50 [3]: > 300 µM

Compound: N=c1[nH]c2ccc(OCCN3CCC(Cc4ccccc4)CC3)cc2[nH]1 [Ex. 172, 4-Benzyl-1-(2-(2-iminobenzimidazol-5-oxy)ethyl)piperidine]
- IC50 [1]: 140 µM
- IC50 [2]: 0.11 µM
- IC50 [3]: 50 µM

Compound: Oc1ccc2cc(OCCN3CCC(Cc4ccc(F)cc4)CC3)ccc2c1 [Ex. 191, 4-(4-Fluorobenzyl)-1-(2-(2-hydroxynaphth-6-oxy)ethyl)piperidine]
- IC50 [1]: 25 µM
- IC50 [2]: 0.1 µM
- IC50 [3]: > 300 µM

Compound: Cc1ccc(CC2CCN(CCOc3ccc4cc(O)ccc4c3)CC2)cc1 [Ex. 192, 4-(4-Methylbenzyl)-1-(2-(2-hydroxynaphth-6-oxy)ethyl)piperidine]
- IC50 [1]: > 300 µM
- IC50 [2]: 0.1 µM
- IC50 [3]: > 300 µM

Compound: O=C1Cc2cc(OCCN3CCC(Cc4ccc(F)cc4)CC3)ccc2N1 [Ex. 195, 4-(4-Fluorobenzyl)-1-(2-(2-oxo-1,3-dihydroindol-5-oxy)ethyl)piperidine]
- IC50 [1]: > 300 µM
- IC50 [2]: 0.07 µM
- IC50 [3]: > 300 µM
